Reference: PMC5923384, “Transporter gene acquisition and innovation in the evolution of Microsporidia intracellular parasites” (Nature Communications, 2018)

Tests used:
RaNTT1 = target: T1, RaNTT1 (Rozella allomycis, UniProt A0A075B2H2); assay: competition with […]-ATP uptake in NTT-expressing E. coli; format: cell-based; conditions: 50,000x excess unlabelled competitor; PBS
T1 construct: gene O9G_001541; PCR-amplified gene, N-terminal His10 tag, pET16b, in E. coli Rosetta2 DE3 pLysS cells
T1 sequence (A0A075B2H2 1-597): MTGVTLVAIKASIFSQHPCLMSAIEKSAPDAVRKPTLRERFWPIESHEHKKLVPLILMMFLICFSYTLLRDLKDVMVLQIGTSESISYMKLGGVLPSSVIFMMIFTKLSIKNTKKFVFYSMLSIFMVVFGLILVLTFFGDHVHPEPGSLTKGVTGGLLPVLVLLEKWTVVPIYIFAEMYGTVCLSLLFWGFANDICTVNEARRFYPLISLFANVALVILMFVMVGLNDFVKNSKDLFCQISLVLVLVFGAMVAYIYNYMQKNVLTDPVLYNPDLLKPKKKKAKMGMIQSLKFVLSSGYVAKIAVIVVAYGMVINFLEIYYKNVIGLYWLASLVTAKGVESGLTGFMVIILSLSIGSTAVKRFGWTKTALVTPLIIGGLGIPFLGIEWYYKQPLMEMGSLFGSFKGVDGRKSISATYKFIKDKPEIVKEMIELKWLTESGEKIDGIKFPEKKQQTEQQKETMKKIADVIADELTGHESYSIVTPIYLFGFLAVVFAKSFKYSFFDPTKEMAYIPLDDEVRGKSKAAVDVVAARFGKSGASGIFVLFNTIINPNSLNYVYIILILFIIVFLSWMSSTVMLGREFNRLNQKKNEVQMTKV

EcNTT1 = target: T2, EcNTT1 (Encephalitozoon cuniculi, UniProt Q8SRA2); assay: […]-nucleotide uptake by NTT-expressing E. coli, […] min; format: cell-based; conditions: PBS; labelled compound
T2 construct: gene NTT1; full-length, N-terminal His10 tag, pET16b, in E. coli Rosetta2 DE3 pLysS cells
T2 sequence (Q8SRA2 1-559): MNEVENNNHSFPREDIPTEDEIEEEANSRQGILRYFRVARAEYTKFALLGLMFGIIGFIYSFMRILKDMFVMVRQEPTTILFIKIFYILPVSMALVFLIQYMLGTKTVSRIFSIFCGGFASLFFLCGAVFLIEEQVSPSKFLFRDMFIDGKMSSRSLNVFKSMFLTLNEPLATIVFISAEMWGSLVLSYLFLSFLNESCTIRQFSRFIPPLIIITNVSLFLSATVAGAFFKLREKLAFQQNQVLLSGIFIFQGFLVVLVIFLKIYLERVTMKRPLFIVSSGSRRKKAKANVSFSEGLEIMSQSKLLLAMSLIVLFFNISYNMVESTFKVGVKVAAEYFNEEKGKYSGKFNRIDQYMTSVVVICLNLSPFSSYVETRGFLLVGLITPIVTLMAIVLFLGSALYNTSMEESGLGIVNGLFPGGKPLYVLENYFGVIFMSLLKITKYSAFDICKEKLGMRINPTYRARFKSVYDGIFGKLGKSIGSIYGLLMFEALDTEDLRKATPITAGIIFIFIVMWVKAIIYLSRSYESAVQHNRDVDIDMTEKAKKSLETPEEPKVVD

AncNTTRoz/Mic = conditions: read-out: apparent Km; PBS; 32P-labelled ATP plus unlabelled ATP; labelled compound
AncNTTMic = conditions: read-out: apparent Km; PBS; 32P-labelled ATP plus unlabelled ATP; labelled compound

Q: `Nc1ncnc2c1ncn2[C@@H]1O[C@H](COP(=O)(O)OP(=O)(O)O)[C@@H](O)[C@H]1O` [ADP] was tested. Which “residual [32P]-ATP uptake” value (RaNTT1) did it give?
A: transport by R. allomycis RaNTT1 was strongly reduced only by cold ATP and ADP

Q: `Nc1nc2c(ncn2[C@@H]2O[C@H](COP(=O)(O)OP(=O)(O)OP(=O)(O)O)[C@@H](O)[C@H]2O)c(=O)[nH]1` [GTP] was tested. Which “[32P]-nucleotide uptake by NTT-expressing E. coli, 30 min” value (EcNTT1) did it give?
A: GTP is transported at high levels for all of the Microsporidia NTTs

Q: Which results are given for `Nc1ncnc2c1ncn2[C@@H]1O[C@H](COP(=O)(O)OP(=O)(O)OP(=O)(O)O)[C@@H](O)[C@H]1O` [ATP]?
A: Km (AncNTTRoz/Mic): 0.8 ± 0.15 µM; Km (AncNTTMic): 1.9 ± 1.35 µM
